Assay results reported in US10669242B2 (priority 2016, dated 2020).
pIC50: −log10 of the molar value.

Key:
[1] = biological target: T1, recombinant glucosyltransferase domain of C. difficile Toxin B/TcdB (Clostridioides difficile, UniProt P18177); assay: biochemical
T1 construct: 6-His (C); purchased R&D Systems 6246-GT

[2] = test system: C. difficile toxin (TcdA and TcdB, ~1:1); assay: Murine C. difficile toxin model (intrarectal toxin); type: in vivo, C57BL/6 mice; settings: murine C. difficile toxin model, PO, 50 mg/kg body weight
Experimental: In the following studies, we established a murine C. difficile toxin model with modifications from a published murine model (Hirota, Iablokov et al. 2012). Details of the murine C. difficile toxin model are described in the “Experimental Protocols” (below). C. difficile toxins were isolated from a culture of the C. difficile strain VPI 10463. C. difficile toxins consisted of TcdA and TcdB (˜1:1 ratio of TcdA:TcdB). Respective TcdA and TcdB concentrations were determined by enzyme-linked immunosorbant assay (ELISA). In our mouse model, C. difficile toxins were administered intrarectally to evaluate their pathological effects.
We administered C. difficile toxin (12.5 μg/mouse) via intrarectal instillation into female C57BL/6 mice. Four (4) animals were used in each group. Four (4) hours after the toxin administration, the mice were euthanized. The colons were excised from the animals and washed with phosphate buffered saline (PBS). The colon lengths were measured. Excised colon tissues were stored at −70° C. for chemical analysis of interleukin-1β(IL-1β) and myeloperosidase (MPO) in tissues, which are the hallmarks of colon inflammation. Excised colon tissues were also stored at room temperature in 10% neutral buffered formalin for histopathological analysis.
Using the murine C. difficile toxin model (Example 61), we evaluated the efficacy of Example 6a in reducing the C. difficile toxin activity. In this study, the isolated toxin (12.5 μg) was diluted in 50 μl of PBS and mixed with a 50 μl suspension of Example 6a (10 mg/mL) in 1% carboxymethyl cellulose and 0.5% Tween 80 to achieve a fixed dose of […] of Example 6a (0.5 mg in mice weighing ˜20 g) and C. difficile toxin (12.5 μg). Three (3) animals were used in each group.
In this study, we evaluated the efficacy of Example 6a via different routes of administration (i.e., oral (PO) and intraperitoneal (IP) administrations) in the same murine C. difficile toxin model (Example 61). In both PO and IP dosages, Example 6a was prepared as 5 mg/mL solutions in 20% PEG-400, 0.4% carboxymethyl cellulose and 0.2% Tween 80. Example 6a was administered at a final dose of 50 mg/kg body weight. Three (3) mice were used in each group (i.e., vehicle (control), PO and IP).
Using the murine C. difficile toxin model (Example 63), we further tested the efficacy of four (4) additional compounds (i.e., Example 6a, Example 5ae, Example 4cl, and Example 5al) via PO administration. All of the compounds were dosed orally at 50 mg/kg body weight. In three separate studies a total of three (3) to fourteen (14) mice were used in each group.
We evaluated the efficacy of additional compounds in reducing C. difficile toxicity. Using the PO administration (Example 63), we further tested 30 compounds (Table 34). All of the compounds were dosed orally at 50 mg/kg body weight. Three (3) to fourteen (14) animals were used for each compound. % inhibition was determined by the following formula: […]
An overnight culture of C. difficile strain VPI 10463 (American Type Culture Collection) was grown at 37° C. in Brain-Heart Infusion (BHI) broth using the GasPak EZ Anaerobe Pouch System (Becton Dickinson). 2 mL of the culture was added to 28 mL of phosphate buffered saline (PBS) in a gamma-irradiated, 10,000 molecular weight cut-off, 30-70 ml Slide-A-Lyzer G2 dialysis cassette (Pierce). This cassette was submerged in 1 L of BHI broth in a 2 L beaker and incubated under anaerobic conditions for 5 days at 37° C. The culture was then transferred to a 50 mL conical tube and the cassette was washed with 10 mL of PBS. The combined culture and wash were centrifuged at 2,000 g for 20 minutes to pellet the bacteria and the supernatant was filtered through a 0.2 μm syringe filter. The filtrate was then applied to a 20 mL 150 K molecular weight cut-off concentration column (Pierce) and centrifuged at 2,000 g for 15 minutes. Concentrated supernatant was stored at 4° C. […]

[3] = biological target: T2, C. difficile full-length toxin TcdA (Clostridioides difficile, UniProt P16154); assay: cell-based
T2 construct: C. difficile full-length toxins (TcdA or TcdB); purchased Enzo Life Sciences BML-G140-0050

[4] = biological target: T3, C. difficile full-length toxin TcdB (Clostridioides difficile, UniProt P18177); assay: cell-based
T3 construct: C. difficile full-length toxins (TcdA or TcdB); purchased EMD Millipore 616377

T2 sequence (P16154 whole entry, looked up): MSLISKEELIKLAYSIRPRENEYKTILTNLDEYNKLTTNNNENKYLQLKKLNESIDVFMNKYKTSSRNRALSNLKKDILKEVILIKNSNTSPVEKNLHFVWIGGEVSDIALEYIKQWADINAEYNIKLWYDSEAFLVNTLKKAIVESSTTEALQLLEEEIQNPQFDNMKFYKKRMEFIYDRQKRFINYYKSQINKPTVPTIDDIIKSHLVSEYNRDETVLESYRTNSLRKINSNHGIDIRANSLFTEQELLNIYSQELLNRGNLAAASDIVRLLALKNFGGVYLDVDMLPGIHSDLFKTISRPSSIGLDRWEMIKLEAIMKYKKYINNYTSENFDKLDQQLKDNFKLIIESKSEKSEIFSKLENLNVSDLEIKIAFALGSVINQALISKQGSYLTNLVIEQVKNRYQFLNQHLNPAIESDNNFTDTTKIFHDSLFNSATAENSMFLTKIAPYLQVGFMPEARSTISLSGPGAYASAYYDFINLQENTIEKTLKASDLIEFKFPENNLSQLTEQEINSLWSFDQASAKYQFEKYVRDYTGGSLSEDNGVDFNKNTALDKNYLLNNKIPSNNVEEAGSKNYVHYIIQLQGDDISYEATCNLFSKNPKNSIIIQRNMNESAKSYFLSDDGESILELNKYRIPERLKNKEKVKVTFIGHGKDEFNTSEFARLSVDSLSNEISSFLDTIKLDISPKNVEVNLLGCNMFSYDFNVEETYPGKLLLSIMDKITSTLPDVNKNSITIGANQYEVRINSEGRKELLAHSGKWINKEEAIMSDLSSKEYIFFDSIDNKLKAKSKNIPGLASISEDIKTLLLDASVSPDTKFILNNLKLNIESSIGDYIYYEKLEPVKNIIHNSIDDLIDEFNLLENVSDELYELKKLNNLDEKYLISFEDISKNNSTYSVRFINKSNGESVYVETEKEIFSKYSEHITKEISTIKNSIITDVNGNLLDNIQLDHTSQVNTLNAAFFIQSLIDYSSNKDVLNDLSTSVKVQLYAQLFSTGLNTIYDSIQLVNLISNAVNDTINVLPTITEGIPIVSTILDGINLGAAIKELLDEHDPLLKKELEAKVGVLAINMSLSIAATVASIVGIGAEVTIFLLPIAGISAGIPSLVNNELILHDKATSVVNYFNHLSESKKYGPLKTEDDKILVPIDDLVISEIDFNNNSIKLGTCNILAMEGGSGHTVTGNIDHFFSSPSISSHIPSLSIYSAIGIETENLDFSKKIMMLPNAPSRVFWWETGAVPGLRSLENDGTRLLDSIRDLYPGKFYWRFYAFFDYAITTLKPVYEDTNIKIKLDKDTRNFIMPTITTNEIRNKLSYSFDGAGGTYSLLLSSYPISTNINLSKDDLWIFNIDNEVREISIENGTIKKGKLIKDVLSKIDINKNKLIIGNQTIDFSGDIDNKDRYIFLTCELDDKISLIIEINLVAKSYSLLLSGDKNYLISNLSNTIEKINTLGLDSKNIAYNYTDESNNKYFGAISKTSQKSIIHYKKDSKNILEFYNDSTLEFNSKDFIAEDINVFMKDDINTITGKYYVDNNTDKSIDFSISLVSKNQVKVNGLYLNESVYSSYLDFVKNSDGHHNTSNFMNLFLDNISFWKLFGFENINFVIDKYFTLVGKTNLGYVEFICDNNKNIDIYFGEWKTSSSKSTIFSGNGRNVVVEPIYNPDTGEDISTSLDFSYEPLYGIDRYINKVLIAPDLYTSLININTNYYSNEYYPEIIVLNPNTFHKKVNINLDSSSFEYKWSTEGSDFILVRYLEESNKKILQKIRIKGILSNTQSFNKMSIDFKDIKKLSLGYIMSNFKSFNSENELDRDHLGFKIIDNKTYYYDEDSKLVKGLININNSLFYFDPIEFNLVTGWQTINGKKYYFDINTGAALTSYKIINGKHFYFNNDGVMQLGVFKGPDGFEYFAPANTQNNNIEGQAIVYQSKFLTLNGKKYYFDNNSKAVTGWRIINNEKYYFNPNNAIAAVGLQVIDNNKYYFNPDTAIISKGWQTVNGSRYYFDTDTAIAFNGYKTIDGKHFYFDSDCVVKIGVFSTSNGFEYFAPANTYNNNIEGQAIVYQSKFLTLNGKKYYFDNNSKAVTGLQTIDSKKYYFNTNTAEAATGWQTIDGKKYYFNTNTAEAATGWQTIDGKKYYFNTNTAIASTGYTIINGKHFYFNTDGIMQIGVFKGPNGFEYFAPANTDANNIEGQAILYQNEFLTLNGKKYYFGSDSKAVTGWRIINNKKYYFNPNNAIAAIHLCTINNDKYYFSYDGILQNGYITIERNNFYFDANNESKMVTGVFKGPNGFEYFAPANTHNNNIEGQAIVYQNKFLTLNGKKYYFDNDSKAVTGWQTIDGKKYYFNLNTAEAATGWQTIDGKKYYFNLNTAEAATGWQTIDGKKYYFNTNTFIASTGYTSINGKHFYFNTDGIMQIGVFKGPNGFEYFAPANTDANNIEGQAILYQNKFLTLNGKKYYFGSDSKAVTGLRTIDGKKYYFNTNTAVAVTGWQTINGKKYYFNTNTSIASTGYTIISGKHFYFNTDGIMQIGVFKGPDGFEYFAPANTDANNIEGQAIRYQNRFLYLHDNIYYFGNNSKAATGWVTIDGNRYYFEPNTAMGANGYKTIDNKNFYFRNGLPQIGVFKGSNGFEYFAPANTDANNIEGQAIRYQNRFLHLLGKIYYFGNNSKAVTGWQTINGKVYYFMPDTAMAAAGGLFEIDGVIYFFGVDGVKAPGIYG
T1 sequence (P18177 1-543): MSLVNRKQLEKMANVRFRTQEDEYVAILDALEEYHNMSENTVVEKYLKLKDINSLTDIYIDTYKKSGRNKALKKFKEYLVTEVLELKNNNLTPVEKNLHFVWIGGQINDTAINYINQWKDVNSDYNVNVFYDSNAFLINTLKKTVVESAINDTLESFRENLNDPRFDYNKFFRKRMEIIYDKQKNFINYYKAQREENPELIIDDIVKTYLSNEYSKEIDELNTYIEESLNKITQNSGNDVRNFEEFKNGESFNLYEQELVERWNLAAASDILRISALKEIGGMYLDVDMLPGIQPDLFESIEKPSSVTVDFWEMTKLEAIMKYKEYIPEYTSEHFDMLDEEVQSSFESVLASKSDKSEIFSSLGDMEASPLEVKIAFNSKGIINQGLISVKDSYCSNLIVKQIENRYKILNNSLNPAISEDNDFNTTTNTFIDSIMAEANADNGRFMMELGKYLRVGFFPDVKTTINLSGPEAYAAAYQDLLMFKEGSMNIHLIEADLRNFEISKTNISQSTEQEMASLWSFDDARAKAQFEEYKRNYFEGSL

`O=C(Nc1ccc(CN2C(=O)c3ccc(Cl)cc3NC(=O)[C@H]2Cc2ccccn2)cc1)c1c[nH]cn1` [Example 27j, (R)-N-(4-((8-Chloro-2,5-dioxo-3-(pyridin-2-ylmethyl)-2,3-dihydro-1H-benzo[e][1,4]diazepin-4(5H)-yl)methyl)phenyl)-1H-imidazole-4-carboxamide] was tested, and the pIC50 [1] was over 7.00, the “IL-1β (% Inhibition)” value [2] was 41% and the “MPO (% Inhibition)” value [2] was 1%. The pIC50 [3] was under 5.00 and the pIC50 [4] was 5.00 to 6.00.

For `Cc1cnc(NC(=O)c2ccc(CN3C(=O)c4ccc(Cl)cc4NC(=O)[C@H]3Cc3ccccn3)cc2Cl)cn1` [Example 5aa, (R)-2-Chloro-4-((8-chloro-2,5-dioxo-3-(pyridin-2-ylmethyl)-2,3-dihydro-1H-benzo[e][1,4]diazepin-4(5H)-yl)methyl)-N-(5-methylpyrazin-2-yl)benzamide], the pIC50 [1] was over 7.00, the “IL-1β (% Inhibition)” value [2] was 63% and the “MPO (% Inhibition)” value [2] was 50%. For the same compound, the pIC50 [3] was 5.00 to 6.00 and the pIC50 [4] was 6.00 to 7.00.

`O=C1Nc2cc(Cl)ccc2C(=O)N(Cc2ccc(N3Cc4cccnc4C3=O)cc2)[C@@H]1Cc1ccccn1` [Example 49c, (R)-8-Chloro-4-(4-(7-oxo-5H-pyrrolo[3,4-b]pyridin-6(7H)-yl)benzyl)-3-(pyridin-2-ylmethyl)-3,4-dihydro-1H-benzo[e][1,4]diazepine-2,5-dione] was tested, and the pIC50 [1] was over 7.00, the “IL-1β (% Inhibition)” value [2] was 30% and the “MPO (% Inhibition)” value [2] was 0%. For the same compound, the pIC50 [3] was under 5.00 and the pIC50 [4] was under 5.00.

For `COc1ccc(NC(=O)c2ccc(CN3C(=O)c4ccc(Cl)cc4NC(=O)[C@H]3Cc3ccccn3)cc2Cl)nc1` [Example 4by, (R)-2-Chloro-4-((8-chloro-2,5-dioxo-3-(pyridin-2-ylmethyl)-2,3-dihydro-1H-benzo[e][1,4]diazepin-4(5H)-yl)methyl)-N-(5-methoxypyridin-2-yl)benzamide], the pIC50 [1] was over 7.00, the “IL-1β (% Inhibition)” value [2] was 46% and the “MPO (% Inhibition)” value [2] was 1%. It also gave a pIC50 [3] of 6.00 to 7.00 and a pIC50 [4] of over 7.00.

With `COc1cnc(NC(=O)c2ccc(CN3C(=O)c4ccc(Cl)cc4NC(=O)[C@H]3Cc3ccccn3)cc2Cl)cn1` [Example 4ci, (R)-2-Chloro-4-((8-chloro-2,5-dioxo-3-(pyridin-2-ylmethyl)-2,3-dihydro-1H-benzo[e][1,4]diazepin-4(5H)-yl)methyl)-N-(5-methoxypyrazin-2-yl)benzamide] the pIC50 [1] was over 7.00, the “IL-1β (% Inhibition)” value [2] was 86% and the “MPO (% Inhibition)” value [2] was 19%. For the same compound, the pIC50 [3] was 5.00 to 6.00 and the pIC50 [4] was 6.00 to 7.00.

`COc1cc(CN2C(=O)c3ccc(Cl)cc3NC(=O)[C@H]2Cc2ccccn2)ccc1C(=O)Nc1ncc(C)cn1` [Example 5am, (R)-4-((8-Chloro-2,5-dioxo-3-(pyridin-2-ylmethyl)-2,3-dihydro-1H-benzo[e][1,4]diazepin-4(5H)-yl)methyl)-2-methoxy-N-(5-methylpyrimidin-2-yl)benzamide] was tested, and the pIC50 [1] was over 7.00, the “IL-1β (% Inhibition)” value [2] was 54% and the “MPO (% Inhibition)” value [2] was 31%. It also gave a pIC50 [3] of 5.00 to 6.00 and a pIC50 [4] of 6.00 to 7.00.

With `Cc1cnc2c(c1)CCN2C(=O)c1ccc(CN2C(=O)c3ccc(Cl)cc3NC(=O)[C@H]2Cc2ccccn2)cc1Cl` [Example 4ad, (R)-8-Chloro-4-(3-chloro-4-(5-methyl-2,3-dihydro-1H-pyrrolo[2,3-b]pyridine-1-carbonyl)benzyl)-3-(pyridin-2-ylmethyl)-3,4-dihydro-1H-benzo[e][1,4]diazepine-2,5-dione] the pIC50 [1] was over 7.00, the “IL-1β (% Inhibition)” value [2] was 80% and the “MPO (% Inhibition)” value [2] was 100%. The pIC50 [3] was 6.00 to 7.00 and the pIC50 [4] was over 7.00.

For `COc1cc(CN2C(=O)c3ccc(Cl)cc3NC(=O)[C@H]2Cc2ccccn2)ccc1C(=O)Nc1cnc(C)cn1` [Example 5aj, (R)-4-((8-Chloro-2,5-dioxo-3-(pyridin-2-ylmethyl)-2,3-dihydro-1H-benzo[e][1,4]diazepin-4(5H)-yl)methyl)-2-methoxy-N-(5-methylpyrazin-2-yl)benzamide], the pIC50 [1] was over 7.00, the “IL-1β (% Inhibition)” value [2] was 76% and the “MPO (% Inhibition)” value [2] was 17%. For the same compound, the pIC50 [3] was 5.00 to 6.00 and the pIC50 [4] was 6.00 to 7.00.

For `COc1cnc(NC(=O)c2ccc(CN3C(=O)c4ccc(Cl)cc4NC(=O)[C@H]3Cc3ccccn3)cc2OC)nc1` [Example 5an, (R)-4-((8-Chloro-2,5-dioxo-3-(pyridin-2-ylmethyl)-2,3-dihydro-1H-benzo[e][1,4]diazepin-4(5H)-yl)methyl)-2-methoxy-N-(5-methoxypyrimidin-2-yl)benzamide], the pIC50 [1] was over 7.00, the “IL-1β (% Inhibition)” value [2] was 87% and the “MPO (% Inhibition)” value [2] was 63%. The pIC50 [3] was 5.00 to 6.00 and the pIC50 [4] was 6.00 to 7.00.

With `Cc1ccc(NC(=O)c2ccc(CN3C(=O)c4ccc(Cl)cc4NC(=O)[C@H]3Cc3ccccn3)cc2Cl)nc1` [Example 4cb, (R)-2-Chloro-4-((8-chloro-2,5-dioxo-3-(pyridin-2-ylmethyl)-2,3-dihydro-1H-benzo[e][1,4]diazepin-4(5H)-yl)methyl)-N-(5-methylpyridin-2-yl)benzamide] the pIC50 [1] was over 7.00, the “IL-1β (% Inhibition)” value [2] was 74% and the “MPO (% Inhibition)” value [2] was 99%. It also gave a pIC50 [3] of 6.00 to 7.00 and a pIC50 [4] of over 7.00.

With `COc1cnc(NC(=O)c2ccc(CN3C(=O)c4ccc(Cl)cc4NC(=O)[C@H]3Cc3ccccn3)cc2OC)cn1` [Example 5ak, (R)-4-((8-Chloro-2,5-dioxo-3-(pyridin-2-ylmethyl)-2,3-dihydro-1H-benzo[e][1,4]diazepin-4(5H)-yl)methyl)-2-methoxy-N-(5-methoxypyrazin-2-yl)benzamide] the pIC50 [1] was over 7.00, the “IL-1β (% Inhibition)” value [2] was 71% and the “MPO (% Inhibition)” value [2] was 73%. It also gave a pIC50 [3] of 5.00 to 6.00 and a pIC50 [4] of 6.00 to 7.00.

In the case of `O=C(Nc1ccc(F)cn1)c1ccc(CN2C(=O)c3ccc(Cl)cc3NC(=O)[C@H]2Cc2ccccn2)cc1` [Example 4a, (R)-4-((8-Chloro-2,5-dioxo-3-(pyridin-2-ylmethyl)-2,3-dihydro-1H-benzo[e][1,4]diazepin-4(5H)-yl)methyl)-N-(5-fluoropyridin-2-yl)benzamide], the pIC50 [1] was over 7.00, the “IL-1β (% Inhibition)” value [2] was 30% and the “MPO (% Inhibition)” value [2] was 51%. For the same compound, the pIC50 [3] was 5.00 to 6.00 and the pIC50 [4] was over 7.00.
